Read-outs that look alike come from different tables or passages of the source. No end group written: not given here.
What was measured:
[1] = system: E. coli; type: cell-based; details: ALS225 cells, minimal inducing plate (M9 glycerol Amp IPTG), grid patching
[2] = system: E. coli; assay: Growth rate analysis in liquid media of cells expressing induced peptides; type: cell-based; details: for % Inhibition (of the growth rate): ALS225, minimal media, 1 mM IPTG, versus induced pLAC11 vector, average of three determinations; for % inhibition versus pLAC11 control (inhibitory peptide): induced inhibitor; for % inhibition versus pLAC11 control (inhibitory peptide) / % inhibition versus pLAC11 control (antisense construct): growth rate; for % inhibition versus pLAC11 control (antisense construct): ATG start codon converted to ACG, induced
[3] = biological target: Calpain; details: Inhibited Protein: Calpain; read-out: Binding Constant; cited from earlier work
[4] = biological target: Nicotinic Acetylcholine; details: read-out: Binding Constant; cited from earlier work
[5] = biological target: galanin receptor; assay: Radio immunoassay, displacement of radiolabeled galanin from its receptor; type: binding
Description: Radio immunoassays (RIAs) were performed to determine the ability of galanin and its APP derivatives to displace radiolabeled galanin from its receptor.

[6] = biological target: ATPase; details: read-out: Binding Constant; Inhibited Protein: ATPase; cited from earlier work
[7] = Steif et al. 1993; cited from earlier work

Row | Molecule | Type (one day / two day inhibitor) [1] | % Inhibition (of the growth rate) [2] [%] | further results
1 | pPep6: 42 aa inhibitor peptide (SEQ ID NO:39); last 25 aa could form a hydrophobic membrane-spanning domain (MSGGHVTRECKSAMSNRWIYVIRILMFDSLSSISFNAVVYHS; also: stabilized peptide) | 1 Day (able to prevent the growth of the E. coli bacteria at 24 hours) | 27 | 
2 | SCP (153-180) |  |  | Kd [3]: 30 nM
3 | α-Conotoxin GIA |  |  | Kd [4]: 1 nM
4 | pPep13: 18 aa inhibitor peptide (SEQ ID NO:48), C-terminal proline (MDREVMCAAKQEWKERTP; stabilized peptide) | 1 Day (able to prevent the growth of the E. coli bacteria at 24 hours) | 28 | % inhibition versus pLAC11 control (inhibitory peptide) [2]: 28%
5 | pPep8: 21 aa inhibitor peptide (SEQ ID NO:43) (MLLFGGDCGKAGYFTVLPSR; stabilized peptide) | 1 Day (able to prevent the growth of the E. coli bacteria at 24 hours) | 29 | 
6 | pPep5: 16 aa inhibitor peptide encoded by clone pPep5 (SEQ ID NO:36) (MWRDSWIKGRDVGFMG; stabilized peptide) | 1 Day (able to prevent the growth of the E. coli bacteria at 24 hours) | 24 | % inhibition versus pLAC11 control (inhibitory peptide) [2]: 23%
7 | pPep12: 14 aa two day inhibitor peptide (SEQ ID NO:46), two prolines near the C-terminus; printed pPep22 in Table 10 (MNGRTKRIRDPPAA; stabilized peptide) | two day | 82 | Type (one day / two day inhibitor) ([1]; listed as pPep22): 2 Day (able to prevent the growth of the E. coli bacteria at 48 hours); % inhibition versus pLAC11 control (inhibitory peptide) [2]: 80%
8 | galanin with the APP (Ala-Pro-Pro) motif at the amino terminus [APP-galanin] |  |  | Ki [5]: 6.42 nM
9 | pPep7: 6 aa inhibitor peptide (SEQ ID NO:40) (MYLFIG; stabilized peptide) | 1 Day (able to prevent the growth of the E. coli bacteria at 24 hours) | 26 | 
10 | pPep19: 5 aa inhibitor peptide (SEQ ID NO:52) (MRGAN; stabilized peptide) | 1 Day (able to prevent the growth of the E. coli bacteria at 24 hours) | 29 | % inhibition versus pLAC11 control (inhibitory peptide) [2]: 29%
11 | pPep17: 12 aa inhibitor peptide (SEQ ID NO:51), C-terminal proline (MLGLEATYPFNP; stabilized peptide) | 1 Day (able to prevent the growth of the E. coli bacteria at 24 hours) | 28 | 
12 | Myotoxin (29-42) |  |  | Kd [6]: 19 µM
13 | pPep10: 20 aa inhibitor peptide (SEQ ID NO:45) (MIGGSLSFAWAIVCNKNSHV; stabilized peptide) | 1 Day (able to prevent the growth of the E. coli bacteria at 24 hours) | 24 | 
14 | pPep5-anti: pPep5 insert recloned in pLAC11 with ATG start codon changed to ACG (SEQ ID NO:30) (nucleic acid, expressed or natural sequence) DNA: TACTATAGATCTACGTGGCGGGACTCATGGATTAAGGGTAGGGACGTGGGGTTTATGGGTTAAAATAGTTTGATAATAAGAATTCTCGACA |  |  | % inhibition versus pLAC11 control (antisense construct) [2]: 0%
15 | pPep19-anti: pPep19 insert recloned in pLAC11 with ATG start codon changed to ACG (SEQ ID NO:33) (nucleic acid, expressed or natural sequence) DNA: TACTATAGATCTACGAGGGGCGCCAACTAAGGGGGGGGGAAGGTATTTGTCCCGTGCATAATCTCGGGTGTTGTCTAATAAGAATTCTCGACA |  |  | % inhibition versus pLAC11 control (antisense construct) [2]: 0%
16 | pPep12-anti: pPep12 insert recloned in pLAC11 with ATG start codon changed to ACG (SEQ ID NO:31) (nucleic acid, expressed or natural sequence) DNA: TACTATAGATCTACGAACGGCCGAACCAAACGAATCCGGGACCCACCAGCCGCCTAAACAGCTACCAGCTGTGGTAATAAGAATTCTCGACA |  |  | % inhibition versus pLAC11 control (antisense construct) [2]: 0%
17 | pPep13-anti: pPep13 insert recloned in pLAC11 with ATG start codon changed to ACG (SEQ ID NO:32) (nucleic acid, expressed or natural sequence) DNA: TACTATAGATCTACGGACCGTGAAGTGATGTGTGCGGCAAAACAGGAATGGAAGGAACGAACGCCATAGGCCGCGTAATAAGAATTCTCGACA |  |  | % inhibition versus pLAC11 control (antisense construct) [2]: 0%
18 | pPep1-anti: pPep1 insert recloned in pLAC11 with ATG start codon changed to ACG (SEQ ID NO:29) (nucleic acid, expressed or natural sequence) DNA: TACTATAGATCTACGGTCACTGAATTTTGTGGCTTGTTGGACCAACTGCCTTAGTAATAGTGGAAGGCTGAAATTAATAAGAATTCTCGACA |  |  | % inhibition versus pLAC11 control (antisense construct) [2]: 0%
19 | Rop: small 63 amino acid four-helix bundle protein from the ColEl replicon, used as stabilizing group (protein, UniProt P03051 1-63, looked up) Regulatory protein rop: MTKQEKTALNMARFIRSQTLTLLEKLNELDADEQADICESLHDHADELYRSCLARFGDDGENL |  |  | midpoint temperature of denaturation, Tm [7]: about 71 °C
